According to patent US9103790B2, “Linker for unimolecular FRET biosensor based on principle of fluorescence resonance energy transfer” (KYOTO UNIVERSITY, priority 2010, dated 2015):

How the values were obtained:
[1] = test system: EGF dependent-activation of ERK; test: Drug sensitivity test: FRET measurement of ERK activity in cell line stably expressing Eevee-ERK (3560 NES); assay type: cell-based, human; settings: HeLa cells stably expressing Eevee-ERK (3560 NES); serial-diluted inhibitors; 25 ng/mL EGF; after 30 min; average of 30 or more cells
Description: FIG. 18A illustrates results when HeLa cells stably expressing Eevee-ERK were seeded onto a 96-well plate, were added thereto serial-diluted inhibitors and stimulated with 25 ng/mL EGF. ERK activities were automatically measured for 30 or more cells, averaged, and plotted. FIG. 18A illustrates results of DMSO controls.
A mammalian cell expression plasmid containing the gene of Eevee-ERK (3560 NES) described in Example 3 was inserted into a plasmid having a transposon recognition sequence. This plasmid and a transposon expression vector was co-transfected as previously reported and screened for biosensor-expressing cell lines by blasticidin [Yusa, K., R. Rad, J. Takeda, and A. Bradley. 2009. Generation of transgene-free induced pluripotent mouse stem cells by the piggyBac transposon. Nat. Methods 6 (5)363-369].
Cultured cell lines were seeded onto a 96-well culture plate. Serial-diluted inhibitors were added thereto. The cell lines were stimulated with 25 ng/mL EGF. After 30 min, ERK activities were measured as described in Example 3 (see FIGS. 18A to 18H). The average ERK activities of 30 or more cells were plotted. The following inhibitors were used: EGF receptor inhibitors (AG1478), MEK inhibitors (PD15035, PD184351), BRAF inhibitors (PLX4720), phosphatidylinositol 3-phosphate kinase inhibitors (LY294002), RSK inhibitors (BI-D1870) and JNK inhibitors (JNK inhibitor VIII).

[2] = test system: PKA; test: Drug sensitivity test with transgenic mouse expressing Eevee-PKA (3536 NES), two-photon FRET imaging of small intestine; assay type: in vivo; settings: intravenous injection; intermuscular nerve cell, intestinal smooth muscle, vascular smooth muscle
From the text: FIG. 19 illustrates results when the transgenic mouse expressing Eevee-PKA (3536 NES) was intravenously injected with theophylline, which is a phosphodiesterase inhibitor, and actosin, which is a cyclic adenosine triphosphate analog, and measured for PKA activities.
The transgenic mouse expressing Eevee-PKA (3536 NES) generated in Example 10 was anesthetized with isoflurane. A small intestine of the mouse was time-lapse imaged by an inverted two-photon microscope IX81/FV1000 (product of Olympus Corporation). Cells were excited at 840 nm with a titanium-sapphire laser system (Mai Tai Deep See HP; product of Spectra-Physics, Inc.). CFP fluorescence and YFP fluorescence were acquired using BA 460-500 fluorescence filter (product of Olympus Corporation) and BA 520-560 fluorescence filter (product of Olympus Corporation), respectively. FRET images were obtained in the same manner as in Example 3.
The transgenic mouse was intravenously injected with theophylline, which is a phosphodiesterase inhibitor, and actosin, which is a cyclic adenosine triphosphate analog, and measured for PKA activities.

Compound: COc1cc2ncnc(Nc3cccc(Br)c3)c2cc1OC [PD153035]
- inhibition of EGF dependent-activation of ERK [1]: effectively inhibited

Compound: O=C(NOCC1CC1)c1ccc(F)c(F)c1Nc1ccc(I)cc1Cl [PD184352]
- inhibition of EGF dependent-activation of ERK [1]: effectively inhibited

Compound: COc1cc2ncnc(Nc3cccc(Cl)c3)c2cc1OC [AG1478]
- inhibition of EGF dependent-activation of ERK [1]: effectively inhibited

Compound: Cn1c(=O)c2[nH]cnc2n(C)c1=O [theophylline]
- PKA activities (FRET) [2]: Changes in PKA activities

Compound: CCCC(=O)Nc1ncnc2c1ncn2[C@@H]1O[C@@H]2COP(=O)([O-])O[C@H]2[C@H]1OC(=O)CCC.[Na+] [actosin]
- PKA activities (FRET) [2]: Changes in PKA activities
